Structures are written as SMILES.

Chain of Erk1 (P27361 whole entry, looked up): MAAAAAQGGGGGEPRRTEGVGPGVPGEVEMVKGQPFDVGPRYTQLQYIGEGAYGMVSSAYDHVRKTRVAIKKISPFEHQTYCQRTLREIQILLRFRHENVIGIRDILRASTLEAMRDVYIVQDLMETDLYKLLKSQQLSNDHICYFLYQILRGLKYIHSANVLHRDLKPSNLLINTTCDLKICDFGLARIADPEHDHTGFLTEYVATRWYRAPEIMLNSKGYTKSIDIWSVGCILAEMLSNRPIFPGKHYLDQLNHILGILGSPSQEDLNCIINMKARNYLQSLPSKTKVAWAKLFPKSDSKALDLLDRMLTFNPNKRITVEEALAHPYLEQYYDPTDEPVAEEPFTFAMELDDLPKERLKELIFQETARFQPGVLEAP

The experiment has as its target Erk1 (Homo sapiens (Human), UniProt P27361). Description: Protein Mass Modification Assay (intact protein MALDI). Format: binding. In short, it runs like this:
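Percent covalent modification comes from the intact-protein MALDI centroid mass shift, treated versus control, divided by compound MW. Before analysis, human Erk1 was exposed to compound at 10-fold excess over protein for 60 min at room temperature.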
Take `O=C(CCl)Nc1ccccc1Nc1nc(N[C@H]2CCCN(C(=O)CCl)C2)ncc1C(F)(F)F` [Compound I-31, (S)-2-Chloro-N-(2-((2-((1-(2-chloroacetyl)piperidin-3-yl)amino)-5-(trifluoromethyl)pyrimidin-4-yl)amino)phenyl)acetamide]: the “ERK1 Mass Mod (%)” value is on record as “G (proived a mass modification ≦30%)”.
With `C=CC(=O)N(C)c1ccccc1Nc1nc(Nc2cc(C(N)=O)ccc2C#N)ncc1Cl` [Compound I-196, 3-((5-chloro-4-((2-(N-methylacrylamido)phenyl)amino)pyrimidin-2-yl)amino)-4-cyanobenzamide], the “ERK1 Mass Mod (%)” value was “E (provided a mass modification of ≧70%)”.
As for `C#CC(=O)NCCCOc1cc(C)c(Nc2ncc(Cl)c(Nc3ccccc3NC(=O)C=C)n2)cc1C(N)=O` [Compound I-227, 5-((4-((2-acrylamidophenyl)amino)-5-chloropyrimidin-2-yl)amino)-4-methyl-2-(3-propiolamidopropoxy)benzamide], the “ERK1 Mass Mod (%)” value is listed as “E (provided a mass modification of ≧70%)”.
Next, `C=CC(=O)Nc1ccccc1Nc1nc(N[C@H]2CCCN(C=O)C2)ncc1Cl` [Compound I-122, (S)—N-(2-((5-chloro-2-((1-formylpiperidin-3-yl)amino)pyrimidin-4-yl)amino)phenyl)acrylamide]: “E (provided a mass modification of ≧70%)”.
Consider `C=CC(=O)Nc1cc(C)ccc1Nc1nc(Nc2ccnc(OC)c2)ncc1Cl` [Compound I-235, N-(2-((5-chloro-2-((2-methoxypyridin-4-yl)amino)pyrimidin-4-yl)amino)-5-methylphenyl)acrylamide], for which the “ERK1 Mass Mod (%)” value is recorded as “E (provided a mass modification of ≧70%)”.
With `C=CC(=O)Nc1ccccc1Nc1nc(N[C@@H]2CCC[C@H](C(=O)NOCCO)C2)ncc1Cl` (racemic) [Compound I-103, Rac-3-((4-((2-acrylamidophenyl)amino)-5-chloropyrimidin-2-yl)amino)-N-(2-hydroxyethoxy)-cis-cyclohexanecarboxamide], the “ERK1 Mass Mod (%)” value was “E (provided a mass modification of ≧70%)”.
Consider `C=CC(=O)Nc1ccccc1Nc1nc(Nc2ccc(NC(=O)CCCC(=O)NCCCOCCOCCOCCCNC(=O)CCCC[C@H]3SC[C@H]4NC(=O)N[C@H]43)cc2OC)ncc1Cl` [Compound I-301, N^1-(4-((4-((2-acrylamidophenyl)amino)-5-chloropyrimidin-2-yl)amino)-3-methoxyphenyl)-N^5-(15-oxo-19-((3aR,4R,6aS)-2-oxohexahydro-1H-thieno[3,4-d]imidazol-4-yl)-4,7,10-trioxa-14-azanonadecyl)glutaramide], for which the “ERK1 Mass Mod (%)” value is reported as “E (provided a mass modification of ≧70%)”.
`C=CC(=O)Nc1ccccc1Nc1nc(Nc2ccc(N(CC)C(C)=O)cc2OC)ncc1Cl` [Compound I-155, N-(2-((5-chloro-2-((4-(N-ethylacetamido)-2-methoxyphenyl)amino)pyrimidin-4-yl)amino)phenyl)acrylamide]: the “ERK1 Mass Mod (%)” value was “E (provided a mass modification of ≧70%)”.
In the case of `C=CC(=O)Nc1cc(C)ccc1Nc1nc(Nc2nc(OC)ncc2C#N)ncc1C(F)(F)F` [Compound I-346, N-(2-((2-((5-cyano-2-methoxypyrimidin-4-yl)amino)-5-(trifluoromethyl)pyrimidin-4-yl)amino)-5-methylphenyl)acrylamide], the “ERK1 Mass Mod (%)” value is “E (provided a mass modification of ≧70%)”.
For `C=CC(=O)Nc1ccccc1Nc1nc(Nc2cc(C(N)=O)ccc2C)ncc1C` [Compound I-224, 3-(4-(2-acrylamidophenylamino)-5-methylpyrimidin-2-ylamino)-4-methyl benzamide], the “ERK1 Mass Mod (%)” value was “E (provided a mass modification of ≧70%)”.
For `C=CC(=O)Nc1ccccc1Nc1nc(Nc2ccc(N3CCOCC3)cc2OC)ncc1C(=O)NCC` [Compound I-251, 4-((2-acrylamidophenyl)amino)-N-ethyl-2-((2-methoxy-4-morpholinophenyl)amino)pyrimidine-5-carboxamide] the value was “G (proived a mass modification ≦30%)”; for `C=CC(=O)Nc1ccccc1Nc1nc(N[C@@H]2CCC[C@H](C(=O)O)C2)ncc1C(F)(F)F` (racemic) [Compound I-14, Rac-3-((4-((2-acrylamidophenyl)amino)-5-(trifluoromethyl)pyrimidin-2-yl)amino)-cis-cyclohexanecarboxylic acid], “E (provided a mass modification of ≧70%)”; for `C=CC(=O)Nc1ccccc1Nc1nc(Nc2ccc(N3CCOCC3)cc2OC)ncc1/C(C)=N/OC` [Compound I-274, (E)-N-(2-((2-((2-methoxy-4-morpholinophenyl)amino)-5-(1-(methoxyimino)ethyl)pyrimidin-4-yl)amino)phenyl)acrylamide], “G (proived a mass modification ≦30%)”.
For `CC(=O)N1CCC[C@H](Nc2ncc(C(F)(F)F)c(Nc3ccccc3NC(=O)CCCl)n2)C1` [Compound I-21, (S)—N-(2-((2-((1-Acetylpiperidin-3-yl)amino)-5-(trifluoromethyl)pyrimidin-4-yl)amino)phenyl)-3-chloropropanamide] the value was “F (provided a mass modification of 31-69%)”; for `C=C(C)S(=O)(=O)Nc1cc(F)ccc1Nc1nc(Nc2cc(C(C)=O)ccc2C)ncc1C(F)(F)F` [Compound I-99, N-(2-((2-((5-acetyl-2-methylphenyl)amino)-5-(trifluoromethyl)pyrimidin-4-yl)amino)-5-fluorophenyl)prop-1-ene-2-sulfonamide], “G (proived a mass modification ≦30%)”; for `C=CC(=O)Nc1ccccc1Nc1nc(Nc2ccc(N3CCOCC3)cc2OC)ncc1C(C)=O` [Compound I-273, N-(2-(5-acetyl-2-(2-methoxy-4-morpholinophenylamino)pyrimidin-4-ylamino)phenyl) acrylamide], “G (proived a mass modification ≦30%)”.
For `C=CC(=O)Nc1cc(C(F)(F)F)ccc1Nc1nc(Nc2cc(OC)ncc2C)ncc1C(F)(F)F` [Compound I-323, N-(2-((2-((2-methoxy-5-methylpyridin-4-yl)amino)-5-(trifluoromethyl)pyrimidin-4-yl)amino)-5-(trifluoromethyl)phenyl)acrylamide] the value was “E (provided a mass modification of ≧70%)”.
On to `C=CC(=O)Nc1ccccc1Nc1nc(Nc2cc(C(N)=O)ccc2C(F)(F)F)ncc1Cl` [Compound I-220, 3-((4-((2-acrylamidophenyl)amino)-5-chloropyrimidin-2-yl)amino)-4-(trifluoromethyl)benzamide], for which the “ERK1 Mass Mod (%)” value was “E (key: E: provided a mass modification of ≧70%; F: provided a mass modification of 31-69%; G: proived a mass modification ≦30%)”.
Turning to `C=CC(=O)Nc1ccccc1Nc1nc(N[C@H]2CCCN(C(=O)[C@H](C)O)C2)ncc1Cl` [Compound I-138, N-(2-((5-chloro-2-(((S)-1-((S)-2-hydroxypropanoyl)piperidin-3-yl)amino)pyrimidin-4-yl)amino)phenyl)acrylamide], the “ERK1 Mass Mod (%)” value is “E (provided a mass modification of ≧70%)”.
Next, `C=CC(=O)Nc1ccccc1Nc1nc(Nc2ccc(N3CCC[C@H]3C(N)=O)cc2C#N)ncc1Cl` [Compound I-177, (S)-1-(4-((4-((2-acrylamidophenyl)amino)-5-chloropyrimidin-2-yl)amino)-3-cyanophenyl)pyrrolidine-2-carboxamide]: “E (provided a mass modification of ≧70%)”.
Take `C=CC(=O)Nc1ccccc1Nc1nc(Nc2ccnc(F)c2)ncc1C(F)(F)F` [Compound I-287, N-(2-((2-((2-Fluoropyridin-4-yl)amino)-5-(trifluoromethyl)pyrimidin-4-yl)amino)phenyl)acrylamide]: the “ERK1 Mass Mod (%)” value was “E (provided a mass modification of ≧70%)”.
Consider `C=CC(=O)Nc1ccccc1Nc1nc(N[C@@H]2CCC[C@H](C(=O)NOC)C2)ncc1C(F)(F)F` (racemic) [Compound I-3, Rac-cis-3-((4-((2-acrylamidophenyl)amino)-5-(trifluoromethyl)pyrimidin-2-yl)amino)-N-methoxycyclohexanecarboxamide], for which the “ERK1 Mass Mod (%)” value is recorded as “E (provided a mass modification of ≧70%)”.
Next, `C=CC(=O)Nc1ccccc1Nc1nc(Nc2cc(F)ccc2C)ncc1C(F)(F)F` [Compound I-285, N-(2-((2-((5-Fluoro-2-methylphenyl)amino)-5-(trifluoromethyl)pyrimidin-4-yl)amino)phenyl)acrylamide]: “E (provided a mass modification of ≧70%)”; `C=CC(=O)Nc1cc(C)ccc1Nc1nc(Nc2ccncc2C)ncc1Cl` [Compound I-236, N-(2-((5-chloro-2-((3-methylpyridin-4-yl)amino)pyrimidin-4-yl)amino)-5-methylphenyl)acrylamide]: “E (provided a mass modification of ≧70%)”.
Next, `C=CC(=O)Nc1cc(C)ccc1Nc1nc(Nc2cc(C)nc(OC)c2)ncc1C(F)(F)F` [Compound I-295, N-(2-((2-((2-methoxy-6-methylpyridin-4-yl)amino)-5-(trifluoromethyl)pyrimidin-4-yl)amino)-5-methylphenyl)acrylamide]: “E (provided a mass modification of ≧70%)”; `C=CC(=O)Nc1ccccc1Nc1nc(Nc2ccc(N3CCOCC3)cc2OC)ncc1C(N)=O` [Compound I-249, 4-((2-acrylamidophenyl)amino)-2-((2-methoxy-4-morpholinophenyl)amino)pyrimidine-5-carboxamide]: “F (provided a mass modification of 31-69%)”; `C=CC(=O)Nc1ccccc1Nc1nc(Nc2ccc(N3CCN(C(=O)CCCC(=O)NCCCOCCOCCOCCCNC(=O)CCCC[C@@H]4SC[C@@H]5NC(=O)N[C@@H]54)CC3)cc2OC(F)F)ncc1Cl` [Compound I-306, 5-(4-(4-((4-((2-acrylamidophenyl)amino)-5-chloropyrimidin-2-yl)amino)-3-(difluoromethoxy)phenyl)piperazin-1-yl)-5-oxo-N-(15-oxo-19-((3aS,4S,6aR)-2-oxohexahydro-1H-thieno[3,4-d]imidazol-4-yl)-4,7,10-trioxa-14-azanonadecyl)pentanamide]: “E (provided a mass modification of ≧70%)”.
